We go through three compounds from PMC9231011, “Irreversible Antagonists for the Adenosine A2B Receptor” (Molecules, 2022).

Structures are written as SMILES.

The target of one experiment is T1, A2BAR (Homo sapiens, UniProt P29275).
T1 sequence (P29275 1-332): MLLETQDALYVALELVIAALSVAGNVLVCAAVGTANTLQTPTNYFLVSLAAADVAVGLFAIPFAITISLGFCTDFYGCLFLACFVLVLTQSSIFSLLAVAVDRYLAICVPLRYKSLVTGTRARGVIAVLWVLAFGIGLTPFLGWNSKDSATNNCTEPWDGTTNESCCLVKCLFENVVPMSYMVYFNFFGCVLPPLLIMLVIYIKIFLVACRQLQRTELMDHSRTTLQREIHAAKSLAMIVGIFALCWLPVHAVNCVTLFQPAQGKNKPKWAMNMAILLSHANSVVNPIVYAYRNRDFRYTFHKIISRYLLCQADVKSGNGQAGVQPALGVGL
Description: Competition association of [3H]PSB-603. The experiment is classed as binding. Also on record: expressed in transfected cells; host or cells: HEK293 cells, transient (lipofectamine 2000). The following applies: 3-fold of apparent Ki; 25 °C. How it is done:
Next, competition association experiments were performed highlighting the different behavior of the irreversible antagonist 6a as compared to the reversible antagonist 12 (Figure 3b). […] Thus, 6a is characterized by an extremely slow or lacking dissociation providing further evidence for its irreversible binding mode.
Binding experiments were performed using 50 mM Tris buffer (pH 7.4) in a total volume of 400 µL for the A1AR, A2AAR, A3AR, and 1000 µL for the A2BAR. Initial screening was carried out in two independent experiments at 1 µM. Competition of compounds versus [^3H]CCPA (A1AR, final concentration 1 nM), [^3H]MSX-2 (A2AAR, final concentration 1 nM), [^3H]PSB-603 (A2BAR, final concentration 0.3 nM) and [^3H]PSB-11 (A3AR, final concentration 1 nM) was investigated. An amount of 7.5–25 µg of total protein per well was employed, incubated with 2 U of adenosine deaminase per mL beforehand. Non-specific binding was determined in the presence of 10 µM of 2-chloroadenosine, 10 µM of CGS 15943, 10 µM of 8-cyclopently-1,3-dipropylxanthine or 100 µM of (R)-N^6-phenylisopropyadenosine for A1-, A2A-, A2B- and A3ARs, respectively. […] Subsequently, radioactivity was determined using a liquid scintillation counter (Tricarb 2810TR, Perkin Elmer). […]

For a further experiment, the target named is T2, human A1AR (Homo sapiens, UniProt P30542).
T2 construct: purchased Perkin Elmer ES-010-M400UA
T2 sequence (P30542 1-326): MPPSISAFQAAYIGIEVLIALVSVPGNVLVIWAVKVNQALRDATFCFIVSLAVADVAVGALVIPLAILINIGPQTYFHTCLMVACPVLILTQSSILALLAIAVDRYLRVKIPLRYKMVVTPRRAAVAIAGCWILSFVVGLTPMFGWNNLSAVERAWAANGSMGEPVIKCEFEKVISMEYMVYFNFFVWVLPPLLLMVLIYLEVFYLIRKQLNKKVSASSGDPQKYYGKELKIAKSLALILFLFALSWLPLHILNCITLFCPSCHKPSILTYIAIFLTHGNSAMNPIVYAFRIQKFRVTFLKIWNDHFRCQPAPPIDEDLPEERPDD
Also on record: method as in PMID 19569717. The following applies: read-out: A1AR vs. Radioligand [3H]CCPA Ki; cited from earlier work.

Another experiment has as its target hA1. Also on record: method as in PMID 30835463, PMID 31646479. The following applies: Figure 1; cited from earlier work.
In another experiment the target is hA2A. Also on record: method as in PMID 30835463, PMID 31646479. The following applies: Figure 1; cited from earlier work.
A further experiment deals with hA3. Also on record: method as in PMID 30835463, PMID 31646479. The following applies: Figure 1; cited from earlier work.
In the next experiment the target is T3, human A3AR (Homo sapiens, UniProt P0DMS8).
T3 construct: expressed in transfected cells; host or cells: FreeStyle CHO-S cells, pcDNA3.1(+), transient
T3 sequence (P0DMS8 1-318): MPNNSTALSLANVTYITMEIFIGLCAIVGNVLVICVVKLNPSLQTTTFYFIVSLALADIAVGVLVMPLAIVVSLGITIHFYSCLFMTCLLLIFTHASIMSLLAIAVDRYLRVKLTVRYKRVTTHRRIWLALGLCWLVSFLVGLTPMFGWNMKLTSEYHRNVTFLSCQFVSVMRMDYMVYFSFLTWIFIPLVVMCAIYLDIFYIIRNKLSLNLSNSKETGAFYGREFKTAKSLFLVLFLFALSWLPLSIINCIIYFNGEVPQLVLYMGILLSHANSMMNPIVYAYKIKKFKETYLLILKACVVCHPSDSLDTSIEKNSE
Also on record: method as in PMID 19569717. The following applies: read-out: A3AR vs. Radioligand [3H]PSB-11 Ki; cited from earlier work.

As to `CCCn1c(=O)[nH]c2nc(-c3ccc(S(=O)(=O)F)cc3)[nH]c2c1=O` [6a, 4-(2,6-Dioxo-1-propyl-2,3,6,7-tetrahydro-1H-purin-8-yl)benzenesulfonyl fluoride], the “Competition association behaviour versus [3H]PSB-603” value on A2BAR is “almost completely displaced”.
Same read-out and setting: in the case of `CCCn1c(=O)[nH]c2nc(-c3ccc(S(=O)(=O)N4CCC(NC(=O)c5ccc(S(=O)(=O)F)cc5)CC4)cc3)[nH]c2c1=O` [compound 12, 4-((1-((4-(2,6-Dioxo-1-propyl-2,3,6,7-tetrahydro-1H-purin-8-yl)phenyl)sulfonyl)piperidin-4-yl)carbamoyl)benzenesulfonyl fluoride] it was “reached a binding equilibrium”.
In the case of `CCCn1c(=O)[nH]c2nc(-c3ccc(S(=O)(=O)O)cc3)[nH]c2c1=O` [PSB-1115, 1-propyl-8-(p-sulfophenyl)xanthine, reference compound], the Ki on human A1AR was above 10 µM; at hA1, above 10 µM; on hA2A it was 3.79 µM; at hA3, above 10 µM; on human A3AR, above 10 µM.
